Assay [1] has as its target T1, 11b-HSD1 (Mus musculus, UniProt P50172).
T1 construct: Fibroblasts were differentiated into adipocytes; endogenous in cells; host or cells: differentiated 3T3-L1 cells (ATCC-CL-173)
Briefly: Cellular assay, 11b-HSD1 activity in differentiated 3T3-L1 cells. It is filed as cell-based. The conditions noted are these: 4 hour pre-incubation; for IC50: read-out: [C2] HSD1 cellular 3T3-L1 Score. The procedure, abridged:
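Differentiated mouse 3T3-L1 adipocytes pre-incubated 4 hours with compound (final 3.10^−9 to 10^−5 M), then 0.5 μCi ³H-cortisone or dehydrocorticosterone added for one hour. Medium extracted with diethyl ether and steroids resolved by HPLC; pIC50 from dose-response curves, reported as scores.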

The target of assay [2] is 11b-HSD1 (Homo sapiens, UniProt P28845). Description: Enzymatic assay, 11b-HSD1 dependent conversion of cortisone into cortisol (reductase activity). It is filed as biochemical. Particulars: recombinant protein, 2 μM cortisone, 45 min at 37 C; for IC50: read-out: [C1] HSD1-prot Reduct Score. The procedure, abridged:
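Recombinant human 11b-HSD1 (11 µg) with 2 µM cortisone and 180 µM NADPH in 30 mM Tris-HCl pH 7.2, 1 mM EDTA, incubated 45 min at 37 °C. Cortisol formation was measured by HPLC with a corticosterone internal standard. Compounds were tested from 10^−5 M to 3.10^−9 M, and pIC50 was scored as 1 (<5), 2 (5–6) or 3 (>6).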

For assay [3], the target named is T2, 11b-HSD2 (Homo sapiens, UniProt P80365).
T2 sequence (P80365 1-405): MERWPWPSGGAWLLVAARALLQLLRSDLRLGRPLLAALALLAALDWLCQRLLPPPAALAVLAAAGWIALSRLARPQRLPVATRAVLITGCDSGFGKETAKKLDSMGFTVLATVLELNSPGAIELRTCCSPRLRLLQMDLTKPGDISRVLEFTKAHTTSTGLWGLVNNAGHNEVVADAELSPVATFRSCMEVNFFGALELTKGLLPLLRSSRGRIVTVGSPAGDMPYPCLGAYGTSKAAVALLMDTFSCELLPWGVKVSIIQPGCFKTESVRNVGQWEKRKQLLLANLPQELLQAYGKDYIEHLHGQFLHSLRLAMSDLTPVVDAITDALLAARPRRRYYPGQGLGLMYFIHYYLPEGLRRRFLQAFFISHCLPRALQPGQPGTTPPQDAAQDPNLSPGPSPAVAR
Description: Cellular assay, 11b-HSD2 activity in HepG2 cells. It is filed as cell-based. Details: endogenous in cells; host or cells: HepG2 (ATCC HB-8065). The conditions noted are these: 4 hour pre-incubation; for IC50: read-out: [C2] HSD2 cellular HepG2 Score. How it is done:
The effects on 11b-HSD2 activity was studied in HepG2 and LCC-PK1-cells HepG2-cells (ATCC HB-8065) were seeded in 12 well plates at a density of 100,000 cells/ml and grown at 37 C in a humidified 5% CO2 atmosphere in MEM-Rega-3 medium supplemented with 10% heat inactivated foetal calf serum, 2 mM L-glutamine and sodium bicarbonate). Medium was refreshed twice a week.
Following a 4 hour pre-incubation with test compound, 0.5 μCi ^3H-cortisol or corticosterone, was added to the cultures. One hour later, the medium was extracted on Extrelut^3-columns with 15 ml diethyl ether and the extract was analysed by HPLC as described above.
As for the enzymatic assays, the compounds to be tested were taken from a stock solution and tested at a final concentration ranging from […] to 3.10^−9M. From the thus obtained dose response curves, the pIC50 value was calculated and scored as follows; Score 1=pIC50 value<5, Score 2=pIC50 value in the range of 5 to 6, Score 3=pIC50 value>6. Some of the thus obtained results are summarized in the table below (in this table NT stands for Not Tested).

Assay [4] addresses T2, 11b-HSD2. Description: Enzymatic assay, 11b-HSD2 dependent dehydrogenase activity. The conditions noted are these: recombinant protein, 100 nM cortisol, 45 min at 37 C; read-out: [C1] HSD2 prot Dehydro Score. It is filed as biochemical. Here is the method:
The effects on the 11b-HSD2 dependent dehydrogenase activity was studied in a reaction mixture containing 0.1M sodium phosphate buffer pH 7.5, 300 μM NAD, 100 nM cortisol (of which 2 nM is 3H-radio labelled), 1 μl drug and/or solvent and 2.5 μg recombinant protein in a final volume of 100 μl.
All incubations were performed for 45 min at 37 C in a water bath. The reaction was stopped by adding 100 μl acetonitrile containing 20 μg corticosterone as internal standard. After centrifugation, the product formation was analysed in the supernatant by HPLC on a Hypersyl BDS-C18 column using 0.05 mM ammonium acetate/methanol (50/50) as solvent. In all of the aforementioned assays, the drugs to be tested were taken from a stock solution and tested at a final concentration ranging from […] to 3.10^−9M. From the thus obtained dose response curves, the pIC50 value was calculated and scored as follows; Score 1=pIC50 value<5, Score 2=pIC50 value in the range of 5 to 6, Score 3=pIC50 value>6. (in this table NT stands for Not Tested).

The text below walks through data of patent US9776965B2, “Pyrrolidin-2-one and piperidin-2-one derivatives as 11-beta hydroxysteroid dehydrogenase inhibitors” (Janssen Pharmaceutica N.V., priority 2004, dated 2017).

SMILES strings stand for the structures. Bounds are passed on as bounds.

11b-HSD1 (Homo sapiens, UniProt P28845), sequence (P28845 whole entry): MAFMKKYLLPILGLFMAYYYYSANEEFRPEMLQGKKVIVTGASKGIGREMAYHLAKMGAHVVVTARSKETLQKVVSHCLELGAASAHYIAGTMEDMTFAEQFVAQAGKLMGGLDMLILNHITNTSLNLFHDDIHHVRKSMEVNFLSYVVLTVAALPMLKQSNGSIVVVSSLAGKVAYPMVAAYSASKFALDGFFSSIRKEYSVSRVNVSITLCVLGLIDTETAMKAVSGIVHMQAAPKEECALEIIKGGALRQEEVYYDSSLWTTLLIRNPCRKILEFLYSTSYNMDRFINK
T1 sequence (P50172 whole entry): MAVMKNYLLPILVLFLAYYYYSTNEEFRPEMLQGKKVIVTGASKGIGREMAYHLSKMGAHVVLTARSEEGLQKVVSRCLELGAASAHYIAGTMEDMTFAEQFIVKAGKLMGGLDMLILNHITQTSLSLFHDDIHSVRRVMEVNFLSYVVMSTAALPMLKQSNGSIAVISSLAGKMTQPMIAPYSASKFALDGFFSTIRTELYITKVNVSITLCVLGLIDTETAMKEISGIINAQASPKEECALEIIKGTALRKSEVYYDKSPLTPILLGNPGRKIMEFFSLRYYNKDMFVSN

Take `C[C@@H](c1ccccc1)N1CC[C@H](Cc2ccccc2)C1=O` [Compound 6]: the values for the IC50 at 11b-HSD1 [1], on 11b-HSD1 [2] and at 11b-HSD2 [3] were 1 to 10 µM, 1 to 10 µM and above 10 µM, respectively.
With `COc1ccc(C[C@H]2CCN([C@H](C)c3ccccc3)C2=O)cc1` [Compound 65], the IC50 is below 1 µM at 11b-HSD1 [1], above 10 µM on 11b-HSD1 [2], above 10 µM at 11b-HSD2 [4] and above 10 µM at 11b-HSD2 [3].
Turning to `COc1ccccc1C[C@H]1CCN([C@@H](C)c2ccccc2)C1=O` [Compound 7], the IC50 at 11b-HSD1 [1] was below 1 µM; at 11b-HSD1 [2] it was 1 to 10 µM; at 11b-HSD2 [4], above 10 µM; at 11b-HSD2 [3], above 10 µM.
For `C[C@@H](c1ccccc1)N1CC[C@H](Cc2cc3c(cc2Cl)OCO3)C1=O` [Compound 154], the IC50 was below 1 µM on 11b-HSD1 [1], above 10 µM on 11b-HSD1 [2] and 1 to 10 µM on 11b-HSD2 [3].
In the case of `C[C@H](c1ccccc1)N1CC[C@H](Cc2c(Cl)cccc2Cl)C1=O` [Compound 45], the IC50 at 11b-HSD1 [1] was below 1 µM; on 11b-HSD1 [2] it was below 1 µM; on 11b-HSD2 [4] it was above 10 µM; on 11b-HSD2 [3], above 10 µM.
Consider `O=C1C(Cc2c(Cl)cccc2Cl)CCN1CCc1ccccc1` (centres unmarked) [Compound 32], for which the IC50 was below 1 µM at 11b-HSD1 [1], below 1 µM on 11b-HSD1 [2], above 10 µM at 11b-HSD2 [4] and above 10 µM on 11b-HSD2 [3].
As to `C[C@@H](c1ccccc1)N1CC[C@H](Cc2ccccc2Cl)C1=O` [Compound 9], the IC50 at 11b-HSD1 [1] was below 1 µM; at 11b-HSD1 [2], 1 to 10 µM; at 11b-HSD2 [4] it was above 10 µM; on 11b-HSD2 [3], above 10 µM.
Consider `Cc1ccc(C[C@@H]2CCN([C@H](C)c3ccccc3)C2=O)cc1` [Compound 27], for which the IC50 at 11b-HSD1 [1] was below 1 µM; at 11b-HSD1 [2] it was above 10 µM; at 11b-HSD2 [4], above 10 µM; on 11b-HSD2 [3] it was above 10 µM.
On to `Cc1cccc(C)c1C[C@H]1CCN([C@@H](C)c2ccccc2)C1=O` [Compound 148], for which the IC50 is below 1 µM on 11b-HSD1 [1], above 10 µM on 11b-HSD1 [2] and above 10 µM on 11b-HSD2 [3].
As for `Cc1ccccc1C(C)[C@H]1CCN([C@@H](C)c2ccccc2)C1=O` (some centres unmarked) [Compound 163], the IC50 at 11b-HSD1 [1] was below 1 µM; on 11b-HSD1 [2], below 1 µM; at 11b-HSD2 [4] it was 1 to 10 µM; on 11b-HSD2 [3], above 10 µM.
Consider `C[C@H](c1ccccc1)N1CC[C@H](Cc2ccccc2Cl)C1=O` [Compound 41], for which the IC50 on 11b-HSD1 [1] is below 1 µM; at 11b-HSD1 [2], 1 to 10 µM; at 11b-HSD2 [4], above 10 µM; at 11b-HSD2 [3], above 10 µM.
`Cc1ccc(CC2CCN(CCc3ccccc3)C2=O)cc1` (centres unmarked) [Compound 35]: the IC50 on 11b-HSD1 [1] was below 1 µM; at 11b-HSD1 [2], above 10 µM; on 11b-HSD2 [4] it was above 10 µM; on 11b-HSD2 [3], above 10 µM.
On to `O=C1C(Cc2c(Cl)cccc2Cl)CCN1CCc1ccc(F)cc1` (centres unmarked) [Compound 80], for which the IC50 at 11b-HSD1 [1] was below 1 µM; at 11b-HSD1 [2], below 1 µM; on 11b-HSD2 [3], above 10 µM.
`Cc1cccc(C)c1C[C@@H]1CCN([C@@H](C)c2ccccc2)C1=O` [Compound 149]: the IC50 was below 1 µM on 11b-HSD1 [1], above 10 µM on 11b-HSD1 [2] and above 10 µM on 11b-HSD2 [3].
In the case of `COc1ccc(C[C@@H]2CCN([C@@H](C)c3ccccc3)C2=O)c(Cl)c1OC` [Compound 119], the IC50 at 11b-HSD1 [1] was below 1 µM; on 11b-HSD1 [2], below 1 µM; on 11b-HSD2 [4], 1 to 10 µM; at 11b-HSD2 [3] it was above 10 µM.
In the case of `C[C@@H](c1ccccc1)N1CC[C@H](Cc2c(F)cccc2F)C1=O` [Compound 71], the IC50 at 11b-HSD1 [1] was below 1 µM; on 11b-HSD1 [2], below 1 µM; on 11b-HSD2 [3], above 10 µM.
As for `Cc1ccc([C@H](O)[C@@H]2CCN([C@@H](C)c3ccccc3)C2=O)c(C)c1` [Compound 69], the results for the IC50 at 11b-HSD1 [1], at 11b-HSD1 [2] and at 11b-HSD2 [3] were below 1 µM, 1 to 10 µM and above 10 µM, respectively.
Consider `Cc1ccc(C[C@@H]2CCN([C@@H](C)c3ccccc3)C2=O)cc1` [Compound 3], for which the figures for the IC50 at 11b-HSD1 [1], at 11b-HSD1 [2] and on 11b-HSD2 [3] were 1 to 10 µM, below 1 µM and above 10 µM, respectively.
The like results for `Cc1ccccc1C[C@H]1CCN([C@@H](C)c2ccccc2)C1=O` [Compound 2] were, in that order, 1 to 10 µM, 1 to 10 µM and above 10 µM.
Turning to `Cc1ccc(C[C@H]2CCN([C@@H](C)c3ccccc3)C2=O)cc1` [Compound 4], the IC50 is 1 to 10 µM at 11b-HSD1 [1], above 10 µM on 11b-HSD1 [2] and above 10 µM on 11b-HSD2 [3].
For `Cc1cccc(C)c1C[C@H]1CCN([C@@H](C)c2ccccc2)C1=O` [Compound 77], the “[C2] HSD1 cellular 3T3-L1 Score” value on 11b-HSD1 [1] is reported as 3 (Score 3=pIC50 value>6). In addition, the “[C1] HSD1-prot Reduct Score” value on 11b-HSD1 [2] is listed as 3 (Score 3=pIC50 value>6). Further, the “[C2] HSD2 cellular HepG2 Score” value at 11b-HSD2 [3] is 1 (Score 1=pIC50 value<5).
For the molecule `C[C@H](c1ccccc1)N1CC[C@@H](Cc2ccccc2Cl)C1=O` [Compound 40], the values for the IC50 on 11b-HSD1 [1] and at 11b-HSD1 [2] were below 1 µM and 1 to 10 µM, respectively.
The like results for `C[C@H](c1ccccc1)[C@H]1CCN([C@@H](C)c2ccccc2)C1=O` [Compound 159] were, in that order, below 1 µM and below 1 µM.
`COC[C@@H](c1ccccc1)N1CC[C@H](Cc2c(Cl)cccc2Cl)C1=O` [Compound 100]: the IC50 at 11b-HSD1 [1] is above 10 µM; at 11b-HSD1 [2] it was 1 to 10 µM.
The like results for `COc1ccc(C[C@@H]2CCN([C@@H](C)c3ccccc3)C2=O)cc1` [Compound 22] were, in that order, 1 to 10 µM and above 10 µM.
The like results for `COc1cc(C[C@H]2CCN([C@@H](C)c3ccccc3)C2=O)ccc1OCc1ccccc1` [Compound 122] were, in that order, 1 to 10 µM and 1 to 10 µM.
The like results for `C[C@@H](c1ccccc1)N1CC[C@@H](Cc2ccc(F)cc2Cl)C1=O` [Compound 151] were, in that order, below 1 µM and below 1 µM.
In the case of `C[C@@H](c1ccccc1)N1CC[C@@H](Cc2cccc(Cl)c2Cl)C1=O` [Compound 12], the IC50 at 11b-HSD1 [1] and on 11b-HSD1 [2] was 1 to 10 µM in each case.
For `Cc1cccc(C[C@@H]2CCN([C@H](C)c3ccccc3)C2=O)c1` [Compound 63], the figures for the IC50 on 11b-HSD1 [1] and at 11b-HSD1 [2] were 1 to 10 µM and above 10 µM, respectively.
With `CC[C@@]1(Cc2ccccc2C)CCN([C@H](C)c2ccccc2)C1=O` [Compound 144], the IC50 on 11b-HSD1 [1] and at 11b-HSD1 [2] was above 10 µM throughout.
Consider `Cc1ccccc1C[C@@H]1CCN([C@H](C)c2ccccc2)C1=O` [Compound 62], for which the IC50 at 11b-HSD1 [1] is 1 to 10 µM; at 11b-HSD1 [2] it was above 10 µM.
For the molecule `C[C@@H](c1ccccc1)N1CC[C@@H](Cc2ccccc2)C1=O` [Compound 5], the figures for the IC50 at 11b-HSD1 [1], at 11b-HSD1 [2] and on 11b-HSD2 [3] were 1 to 10 µM, 1 to 10 µM and above 10 µM, respectively.
As to `O=C1C(Cc2ccc(F)cc2Cl)CCN1CCCc1ccccc1` (centres unmarked) [Compound 112], the IC50 at 11b-HSD1 [1] and on 11b-HSD1 [2] was 1 to 10 µM each time.
Take `C[C@@H](c1ccccc1)N1CC[C@@H](Cc2c(F)cccc2F)C1=O` [Compound 70]: the figures for the IC50 on 11b-HSD1 [1], on 11b-HSD1 [2] and at 11b-HSD2 [3] were below 1 µM, above 10 µM and above 10 µM, respectively.
